Laboratory results as given in the supplement of paper PMC6461962.
Structures can show the parent of a compound that is named as a salt.

Assays:
[1] = tested on: Pseudomonas fluorescens FW300-N2E2
Procedure, shortened: (§1)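 Cells were washed and added to 384-well plates at a final OD600 of 0.02 in 80 µL, with serial dilutions of inorganic ion salts or equimolar nitrilotriacetic acid complexes. Aerobic plates were shaken at 700 rpm at 30 °C, while anaerobic plates were not shaken, and OD600 was read at 24 h, or at 48 h for R2A strain comparisons. Readings were scaled between water controls and growth-blocking antibiotic controls, and wells with precipitate were excluded. The IC50 was obtained by fitting curves from at least two biological replicates with the drc R package.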

[2] = tested on: Rhodanobacter sp. FW104-10B01
Procedure, shortened: as §1

[3] = medium / electron acceptor: N2E2 Glucose/aerobic
[4] = medium / electron acceptor: N2E2 Glucose/aerobic 0.25xMinerals
[5] = medium / electron acceptor: N2E2 Glucose/aerobic (2)
[6] = medium / electron acceptor: N2E2 KB/aerobic
[7] = medium / electron acceptor: N2E2 LB/aerobic
[8] = medium / electron acceptor: N2E2 LB/aerobic (2)
[9] = medium / electron acceptor: N2E2 LB/nitrate
[10] = medium / electron acceptor: N2E2 Lactate/aerobic
[11] = medium / electron acceptor: N2E2 R2A/aerobic
[12] = medium / electron acceptor: 10B01 R2A/aerobic
[13] = medium / electron acceptor: 10B01 R2A/nitrate

| Compound | IC50 growth inhibition [1, 3] [mM] | IC50 growth inhibition [1, 4] [mM] | IC50 growth inhibition [1, 5] [mM] | IC50 growth inhibition [1, 6] [mM] | IC50 growth inhibition [1, 7] [mM] | IC50 growth inhibition [1, 8] [mM] | IC50 growth inhibition [1, 9] [mM] | IC50 growth inhibition [1, 10] [mM] | IC50 growth inhibition [1, 11] [mM] | IC50 growth inhibition [2, 12] [mM] | IC50 growth inhibition [2, 13] [mM] |
| --- | --- | --- | --- | --- | --- | --- | --- | --- | --- | --- | --- |
| O.O.O.O.O.O.[Al+3].[Cl-].[Cl-].[Cl-] [Aluminum chloride hydrate] | > 5 | 0.409 | > 5 | > 5 | > 5 | > 5 | 4.64 | > 5 | 0.227 | 3.54 | > 5 |
| Cl.N [Ammonium chloride] | 354 | 347 | 330 | 333 | 372 | 422 | 199 | 355 | > 500 | > 500 | > 500 |
| O.O.[Ba+2].[Cl-].[Cl-] [Barium chloride dihydrate] | > 5 | 3.19 | 2.84 | 3.22 | > 5 | > 5 | 4.99 | > 5 | > 5 | > 5 | > 5 |
| O.O.O.O.O.[Cd+2].[Cd+2].[Cl-].[Cl-].[Cl-].[Cl-] [Cadmium chloride hemipentahydrate] | < 0.00244 | < 0.00244 | < 0.00244 | 0.117 | 0.141 | 0.0516 | 0.111 | < 0.00244 | 0.014 | 0.11 | 0.189 |
| [Ca+2].[Cl-].[Cl-] [Calcium chloride dihydrate] | > 500 | > 500 | > 500 | > 500 | 309 | 365 | 65.1 | 452 | 333 | 354 | 354 |
| [Ce+3].[Cl-].[Cl-].[Cl-] [Cerium(III) chloride] | < 0.244 | < 0.244 | < 0.244 | < 0.244 | < 0.244 | < 0.244 | < 0.244 | < 0.244 | < 0.244 | < 0.244 | < 0.244 |
| [Cl-].[Cs+] [Cesium chloride] | < 0.244 | < 0.244 | < 0.244 | 0.791 | 5.91 | 2.14 | 16.6 | < 0.244 | 1.2 | 0.452 | 3.79 |
| O.O.O.O.O.O.[Cl][Cr]([Cl])[Cl] [Chromium(III) Chloride Hexahydrate] | < 0.00244 | < 0.00244 | < 0.00244 | > 5 | 4.91 | 4.91 | > 5 | < 0.00244 | 0.322 | 2.16 | 3.46 |
| O.O.O.O.O.O.[Cl-].[Cl-].[Co+2] [Cobalt chloride hexahydrate] | < 0.00244 | < 0.00244 | < 0.00244 | 0.0208 | 0.175 | 0.0867 | > 5 | 0.00741 | 0.0138 | 0.592 | 0.484 |
| O=C(O)C[C@H](NCCN[C@@H](CC(=O)O)C(=O)O)C(=O)O [Ethylenediamine-N,N'-disuccinic acid] | < 0.122 | < 0.122 | < 0.122 | < 0.122 | < 0.122 | < 0.122 | 0.488 | < 0.122 | < 0.122 | 1.76 | 2.76 |
| [Cl][Fe]([Cl])[Cl] [Ferric chloride] | > 50 | > 50 | 39.2 | > 50 | > 50 | > 50 | > 50 | 41.7 | 0.237 | > 50 | > 50 |
| [Cl][Ga]([Cl])[Cl] [Gallium(III)chloride] | < 0.0244 | < 0.0244 | < 0.0244 | < 0.0244 | < 0.0244 | < 0.0244 | < 0.0244 | < 0.0244 | < 0.0244 | 1 | 1.67 |
| NO [Hydroxylamine hydrochloride] | < 0.244 | < 0.244 | < 0.244 | < 0.244 | < 0.244 | < 0.244 | 0.694 | < 0.244 | < 0.244 | 31.9 | > 500 |
| O.[Cl-].[Li+] [Lithium chloride hydrate] | 349 | > 500 | 33.9 | 325 | 354 | 354 | 263 | 321 | 176 | 15.6 | 98.7 |
| O.O.O.O.O.O.[Cl-].[Cl-].[Mg+2] [Magnesium chloride hexahydrate] | 276 | 431 | 366 | 354 | 354 | 360 | 321 | 354 | 268 | 218 | 141 |
| O.O.O.O.[Cl][Mn][Cl] [Manganese (II) chloride tetrahydrate] | > 5 | > 5 | 1.57 | > 5 | 3.79 | 3.91 | > 5 | > 5 | 1.45 | > 5 | > 5 |
| O.O.O.O.O.O.[Cl][Ni][Cl] [Nickel (II) chloride hexahydrate] | 0.0112 | 0.00556 | 0.0143 | 3.92 | 3.59 | > 5 | > 5 | 0.0276 | 0.221 | 1.03 | 1.82 |
| O=C(O)CN(CC(=O)O)CC(=O)O [Nitrilotriacetic acid] | 0.345 | 21.4 | 6.51 | 15.3 | 54.7 | 111 | 6.75 | < 0.122 | 9.21 | > 250 | > 250 |
| [Cl][Pd][Cl] [Palladium(II) chloride] | < 0.00244 | < 0.00244 | < 0.00244 | 3.73 | > 5 | 3.78 | > 5 | < 0.00244 | 0.249 | > 5 | > 5 |
| [Cl-].[K+] [Potassium Chloride] | > 500 | > 500 | > 500 | > 500 | > 500 | > 500 | 458 | > 500 | > 500 | > 500 | 381 |
| [K+].[K+].[O]=[Cr](=[O])([O-])[O-] [Potassium chromate] | < 0.244 | < 0.244 | < 0.244 | < 0.244 | < 0.244 | < 0.244 | 31 | < 0.244 | 0.0094 | 0.123 | < 0.244 |
| O.O=[Te]([O-])[O-].[K+].[K+] [Potassium tellurite hydrate] | < 0.00244 | < 0.00244 | < 0.00244 | < 0.00244 | < 0.00244 | < 0.00244 | 0.01 | < 0.00244 | < 0.00244 | 0.01 | 0.01 |
